# Results taken from PubChem BioAssay AID1963850 (Molecular Pharmacology Branch, DTP, NCI, 2024).
# System: 192522-019-R-J2-PDC complex tumor spheroid viability
# Experiment: Anticancer human tumor 192522-019-R-J2-PDC patient-derived colon adenocarcinoma cell line growth inhibition [POLQ]
# Details: for IC50: curve of first compound; for viability, T/C: stronger effect = lower value
# Procedure, shortened: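 PDC + HUVEC + MSC complex spheroids; POLQ inhibitors ± partner drugs; top conc. at/near clinical Cmax, else 10 microM (SN-38 1 microM), half-log dilutions; 37 degrees C, 5% CO2.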
# [1] = second compound 0.0316 µM, first compound 0.0316 µM
# [2] = second compound 0.0316 µM, first compound 0.1 µM
# [3] = second compound 0.0316 µM, first compound 0.316 µM
# [4] = second compound 0.0316 µM, first compound 1 µM
# [5] = second compound 0.0316 µM, first compound 3.16 µM
# [6] = second compound 0.0316 µM, first compound 10 µM
# [7] = second compound 0.1 µM, first compound 0.0316 µM
# [8] = second compound 0.1 µM, first compound 0.1 µM
# [9] = second compound 0.1 µM, first compound 0.316 µM
# [10] = second compound 0.1 µM, first compound 1 µM
# [11] = second compound 0.1 µM, first compound 3.16 µM
# [12] = second compound 0.1 µM, first compound 10 µM
# [13] = second compound 0.316 µM, first compound 0.0316 µM
# [14] = second compound 0.316 µM, first compound 0.1 µM
# [15] = second compound 0.316 µM, first compound 0.316 µM
# [16] = second compound 0.316 µM, first compound 1 µM
# [17] = second compound 0.316 µM, first compound 3.16 µM
# [18] = second compound 0.316 µM, first compound 10 µM
# [19] = second compound 1 µM, first compound 0.0316 µM
# [20] = second compound 1 µM, first compound 0.1 µM
# [21] = second compound 1 µM, first compound 0.316 µM
# [22] = second compound 1 µM, first compound 1 µM
# [23] = second compound 1 µM, first compound 3.16 µM
# [24] = second compound 1 µM, first compound 10 µM
# [25] = second compound 3.16 µM, first compound 0.0316 µM
# [26] = second compound 3.16 µM, first compound 0.1 µM
# [27] = second compound 3.16 µM, first compound 0.316 µM
# [28] = second compound 3.16 µM, first compound 1 µM
# [29] = second compound 3.16 µM, first compound 3.16 µM
# [30] = second compound 3.16 µM, first compound 10 µM
# [31] = second compound 10 µM, first compound 0.0316 µM
# [32] = second compound 10 µM, first compound 0.1 µM
# [33] = second compound 10 µM, first compound 0.316 µM
# [34] = second compound 10 µM, first compound 1 µM
# [35] = second compound 10 µM, first compound 3.16 µM
# [36] = second compound 10 µM, first compound 10 µM
# 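Note: spheroids exposed to drugs for seven days before reading.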
# 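Throughout, for viability, T/C: 100% = DMSO vehicle control viability in luminescence.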
smiles,measurement,setting,value
CCCS(=O)(=O)Nc1ccc(F)c(C(=O)c2c[nH]c3ncc(-c4ccc(Cl)cc4)cc23)c1F + Nc1ccc(C#CCN(C(=O)Cc2ncc(C(F)(F)F)cc2C(F)(F)F)c2ccc(F)cc2)nn1,IC50,second compound 0.0316 µM,> 10 µM
same,IC50,second compound 0.1 µM,> 10 µM
same,IC50,second compound 0.316 µM,> 10 µM
same,IC50,second compound 1 µM,> 10 µM
same,IC50,second compound 3.16 µM,> 10 µM
same,IC50,second compound 10 µM,> 10 µM
same,"viability, T/C",[1],109%
same,"viability, T/C",[2],95.2%
same,"viability, T/C",[3],109%
same,"viability, T/C",[4],98.3%
same,"viability, T/C",[5],121%
same,"viability, T/C",[6],66.9%
same,"viability, T/C",[7],106%
same,"viability, T/C",[8],107%
same,"viability, T/C",[9],104%
same,"viability, T/C",[10],99.9%
same,"viability, T/C",[11],101%
same,"viability, T/C",[12],67.9%
same,"viability, T/C",[13],102%
same,"viability, T/C",[14],98.7%
same,"viability, T/C",[15],99.4%
same,"viability, T/C",[16],102%
same,"viability, T/C",[17],101%
same,"viability, T/C",[18],83.6%
same,"viability, T/C",[19],98%
same,"viability, T/C",[20],107%
same,"viability, T/C",[21],97.9%
same,"viability, T/C",[22],110%
same,"viability, T/C",[23],125%
same,"viability, T/C",[24],94.1%
same,"viability, T/C",[25],101%
same,"viability, T/C",[26],102%
same,"viability, T/C",[27],98.4%
same,"viability, T/C",[28],99.9%
same,"viability, T/C",[29],113%
same,"viability, T/C",[30],86.6%
same,"viability, T/C",[31],105%
same,"viability, T/C",[32],106%
same,"viability, T/C",[33],99.6%
same,"viability, T/C",[34],110%
same,"viability, T/C",[35],118%
same,"viability, T/C",[36],78.1%
COc1cccc2c1C(=O)c1c(O)c3c(c(O)c1C2=O)CC(O)(C(=O)CO)CC3OC1CC(N)C(O)C(C)O1 (stereo unspecified) + COC1C(OC(N)=O)C(O)C(Oc2ccc3c(O)c(NC(=O)c4ccc(O)c(CC=C(C)C)c4)c(=O)oc3c2C)OC1(C)C,IC50,second compound 0.0316 µM,> 10 µM
same,IC50,second compound 0.1 µM,> 10 µM
same,IC50,second compound 0.316 µM,> 10 µM
same,IC50,second compound 1 µM,> 10 µM
same,IC50,second compound 3.16 µM,> 10 µM
same,IC50,second compound 10 µM,> 10 µM
same,"viability, T/C",[1],94.3%
same,"viability, T/C",[2],79.1%
same,"viability, T/C",[3],64.9%
same,"viability, T/C",[4],78.1%
same,"viability, T/C",[5],65.2%
same,"viability, T/C",[6],55.3%
same,"viability, T/C",[7],104%
same,"viability, T/C",[8],84.4%
same,"viability, T/C",[9],65.6%
same,"viability, T/C",[10],78.4%
same,"viability, T/C",[11],61.2%
same,"viability, T/C",[12],55.2%
same,"viability, T/C",[13],98.2%
same,"viability, T/C",[14],86.4%
same,"viability, T/C",[15],61.3%
same,"viability, T/C",[16],79.3%
same,"viability, T/C",[17],61.9%
same,"viability, T/C",[18],55.6%
same,"viability, T/C",[19],104%
same,"viability, T/C",[20],92.8%
same,"viability, T/C",[21],68.7%
same,"viability, T/C",[22],76.3%
same,"viability, T/C",[23],71%
same,"viability, T/C",[24],53.1%
same,"viability, T/C",[25],101%
same,"viability, T/C",[26],85.5%
same,"viability, T/C",[27],69.5%
same,"viability, T/C",[28],73%
same,"viability, T/C",[29],67%
same,"viability, T/C",[30],54.7%
same,"viability, T/C",[31],102%
same,"viability, T/C",[32],87.4%
same,"viability, T/C",[33],66.5%
same,"viability, T/C",[34],78%
same,"viability, T/C",[35],70.8%
same,"viability, T/C",[36],58.6%
C=CC(=O)N1CCN(c2nc(=O)n(-c3c(C)ccnc3C(C)C)c3nc(-c4c(O)cccc4F)c(F)cc23)C(C)C1 (stereo unspecified) + Nc1ccc(C#CCN(C(=O)Cc2ncc(C(F)(F)F)cc2C(F)(F)F)c2ccc(F)cc2)nn1,IC50,second compound 0.0316 µM,> 10 µM
same,IC50,second compound 0.1 µM,> 10 µM
same,IC50,second compound 0.316 µM,> 10 µM
same,IC50,second compound 1 µM,> 10 µM
same,IC50,second compound 3.16 µM,> 10 µM
same,IC50,second compound 10 µM,> 10 µM
same,"viability, T/C",[1],104%
same,"viability, T/C",[2],99.7%
same,"viability, T/C",[3],96.7%
same,"viability, T/C",[4],111%
same,"viability, T/C",[5],116%
same,"viability, T/C",[6],97%
same,"viability, T/C",[7],105%
same,"viability, T/C",[8],97.2%
same,"viability, T/C",[9],110%
same,"viability, T/C",[10],112%
same,"viability, T/C",[11],102%
same,"viability, T/C",[12],98.3%
same,"viability, T/C",[13],108%
same,"viability, T/C",[14],104%
same,"viability, T/C",[15],103%
same,"viability, T/C",[16],105%
same,"viability, T/C",[17],116%
same,"viability, T/C",[18],100%
same,"viability, T/C",[19],109%
same,"viability, T/C",[20],102%
same,"viability, T/C",[21],103%
same,"viability, T/C",[22],108%
same,"viability, T/C",[23],119%
same,"viability, T/C",[24],99.3%
same,"viability, T/C",[25],102%
same,"viability, T/C",[26],98.8%
same,"viability, T/C",[27],103%
same,"viability, T/C",[28],108%
same,"viability, T/C",[29],115%
same,"viability, T/C",[30],106%
same,"viability, T/C",[31],104%
same,"viability, T/C",[32],111%
same,"viability, T/C",[33],102%
same,"viability, T/C",[34],108%
same,"viability, T/C",[35],107%
same,"viability, T/C",[36],104%
